Measurements as given in patent US12441689B2 (EpiVario, Inc., priority 2019, dated 2025).

target: human ACSS2 protein (Homo sapiens (Human), UniProt Q9NR19); experiment: ACSS2 Cell-Free Activity Assay (Cell-Free IC50); conditions: 10 nM human ACSS2 protein, 90 minutes at 37 C, pyrophosphatase-coupled, Biomol Green absorbance at 620 nm; read-out: ACSS2 Biochemical IC50
Text: ACSS2 Cell-Free Activity Assay (Cell-Free IC50)

Sequence of human ACSS2 protein (Q9NR19 whole entry): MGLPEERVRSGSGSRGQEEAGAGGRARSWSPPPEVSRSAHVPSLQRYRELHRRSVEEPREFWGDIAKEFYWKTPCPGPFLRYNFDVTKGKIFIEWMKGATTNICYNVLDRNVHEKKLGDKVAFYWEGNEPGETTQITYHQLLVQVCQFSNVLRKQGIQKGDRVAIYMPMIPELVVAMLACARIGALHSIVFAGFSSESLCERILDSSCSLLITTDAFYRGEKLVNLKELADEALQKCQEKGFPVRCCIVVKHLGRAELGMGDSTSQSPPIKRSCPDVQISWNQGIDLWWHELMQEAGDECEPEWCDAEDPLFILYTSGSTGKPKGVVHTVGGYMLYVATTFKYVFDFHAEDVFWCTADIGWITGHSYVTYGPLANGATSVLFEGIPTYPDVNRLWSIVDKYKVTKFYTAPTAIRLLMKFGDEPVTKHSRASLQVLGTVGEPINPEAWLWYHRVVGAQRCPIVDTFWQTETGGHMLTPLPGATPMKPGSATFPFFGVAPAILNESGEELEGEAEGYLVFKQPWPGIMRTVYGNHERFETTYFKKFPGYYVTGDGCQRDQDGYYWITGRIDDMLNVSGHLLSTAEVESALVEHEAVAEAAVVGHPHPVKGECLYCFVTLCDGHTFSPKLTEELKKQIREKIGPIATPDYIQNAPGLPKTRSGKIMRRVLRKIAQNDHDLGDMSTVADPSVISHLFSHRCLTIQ

Molecule	IC50 [nM]
Cc1nn(-c2ccc(OC(F)F)cc2)c(OC(=O)N2CCN(C(C)(C)CO)CC2)c1C(=O)Nc1cccc(C(C)(F)F)c1 [Compound 185, 4-((3-(1,1-difluoroethyl)phenyl)carbamoyl)-1-(4-(difluoromethoxy)phenyl)-3-methyl-1H-pyrazol-5-yl 4-(1-hydroxy-2-methylpropan-2-yl)piperazine-1-carboxylate]	> 100
CCC(F)(F)c1cccc(NC(=O)c2c(C)oc(-c3ccc(OC)cc3)[n+]2[O-])c1 [Compound 250, 4-((3-(1,1-difluoropropyl)phenyl)carbamoyl)-2-(4-methoxyphenyl)-5-methyloxazole 3-oxide]	> 100
Cc1oc(-c2ccc3cc[nH]c3c2)nc1C(=O)Nc1cccc(C(C)(F)F)c1 [Compound 107, N-[3-(1,1-difluoroethyl)phenyl]-2-(1H-indol-6-yl)-5-methyl-oxazole-4-carboxamide]	> 100
CCCc1cc(N2N=C(C)C(C(=O)Nc3cccc(C(F)(F)CC)c3)C2=O)cc(-c2ccccc2)c1OC (stereo not shown) [Compound 225, N-(3-(1,1-difluoropropyl)phenyl)-1-(6-methoxy-5-propyl-[1,1’-biphenyl]-3-yl)-3-methyl-5-oxo-4,5-dihydro-1H-pyrazole-4-carboxamide]	1 to 100
COc1ccc(-c2nc(C(=O)Nc3cccc(C(C)(F)F)c3)c(C)o2)cc1 [Compound 153, N-[3-(1,1-difluoroethyl)phenyl]-2-(4-methoxyphenyl)-5-methyl-oxazole-4-carboxamide]	> 100
CCC(F)(F)c1cccc(NC(=O)c2cc(C)nc(-c3cc(C)cc(-c4ccccc4)c3)n2)c1 [Compound 226, N-(3-(1,1-difluoropropyl)phenyl)-6-methyl-2-(5-methyl-[1,1′-biphenyl]-3-yl)pyrimidine-4-carboxamide]	> 100
CCC(F)(F)c1cccc(NC(=O)c2oc(-c3ccc(OC(F)F)c(-c4ccccn4)c3)nc2C)c1 [Compound 214, 2-(4-(difluoromethoxy)-3-(pyridin-2-yl)phenyl)-N-(3-(1,1-difluoropropyl)phenyl)-4-methyloxazole-5-carboxamide]	> 100
CCC(F)(F)c1cccc(NC(=O)c2c(C)[nH]c3cc(OC)ccc3c2=O)c1 [Compound 273, N-(3-(1,1-difluoropropyl)phenyl)-7-methoxy-2-methyl-4-oxo-1,4-dihydroquinoline-3-carboxamide]	1 to 100
N-(3-(1,1-difluoroethyl)phenyl)-2-(6-(difluoromethoxy)-[1,1′-biphenyl]-3-yl)-4-methyloxazole-5-carboxamide [Compound 115]	> 100
Cc1nn(-c2ccc(OC(F)F)c(-c3cocn3)c2)cc1C(=O)Nc1cccc(C(C)(F)F)c1 [Compound 149, N-(3-(1,1-difluoroethyl)phenyl)-1-(4-(difluoromethoxy)-3-(oxazol-4-yl)phenyl)-3-methyl-1H-pyrazole-4-carboxamide]	> 100
CC1=NN(c2ccc(OC(F)F)cc2)C(=O)C1C(=O)Nc1cccc(C(F)(F)C2CCC2)c1 (stereo not shown) [Compound 101, N-(3-(cyclobutyldifluoromethyl)phenyl)-1-(4-(difluoromethoxy)phenyl)-3-methyl-5-oxo-4,5-dihydro-1H-pyrazole-4-carboxamide]	1 to 100
CCC(F)(F)c1cccc(NC(=O)c2nc(-c3ccc(OC(F)F)c(-c4ccccn4)c3)oc2C)c1 [Compound 259, 2-(4-(difluoromethoxy)-3-(pyridin-2-yl)phenyl)-N-(3-(1,1-difluoropropyl)phenyl)-5-methyloxazole-4-carboxamide]	> 100
COc1c(Cc2ccc(Cl)cc2)cc(N2N=C(C)C(C(=O)Nc3cccc(C(C)(F)F)c3)C2=O)cc1-c1ccccc1 (stereo not shown) [Compound 224, 1-(5-(4-chlorobenzyl)-6-methoxy-[1,1’-biphenyl]-3-yl)-N-(3-(1,1-difluoroethyl)phenyl)-3-methyl-5-oxo-4,5-dihydro-1H-pyrazole-4-carboxamide]	1 to 100
Cc1nn(-c2ccc(OC(F)F)cc2)c(C2CC2)c1C(=O)Nc1cccc(C(C)(F)F)c1 [Compound 145, 5-cyclopropyl-N-[3-(1,1-difluoroethyl)phenyl]-1-[4-(difluoromethoxy)phenyl]-3-methyl-pyrazole-4-carboxamide]	1 to 100
Cc1nn(-c2ccc(OC(F)F)cc2)c(C(C)C)c1C(=O)Nc1cccc(C(C)(F)F)c1 [Compound 146, N-[3-(1,1-difluoroethyl)phenyl]-1-[4-(difluoromethoxy)phenyl]-5-isopropyl-3-methyl-pyrazole-4-carboxamide]	> 100
Cc1nn(-c2ccc(OC(F)F)c(-c3cccnc3)c2)c(OC(=O)N2CCC(N3CCCCC3)CC2)c1C(=O)Nc1cccc(C(C)(F)F)c1 [Compound 190, 4-((3-(1,1-difluoroethyl)phenyl)carbamoyl)-1-(4-(difluoromethoxy)-3-(pyridin-3-yl)phenyl)-3-methyl-1H-pyrazol-5-yl [1,4′-bipiperidine]-1′-carboxylate]	1 to 100
CCC(F)(F)c1cccc(NC(=O)c2cc(-c3ccc(OC(F)F)c(-c4ccccc4)n3)[nH]c2C)c1 [Compound 223, 5-(5-(difluoromethoxy)-6-phenylpyridin-2-yl)-N-(3-(1,1-difluoropropyl)phenyl)-2-methyl-1H-pyrrole-3-carboxamide]	> 100

Molecule	IC50 [nM]
COc1ccc(-c2nc(C)c(C(=O)Nc3cccc(C(C)(F)F)c3)o2)cc1 [Compound 142, N-(3-(1,1-difluoroethyl)phenyl)-2-(4-methoxyphenyl)-4-methyloxazole-5-carboxamide]	> 100
CCC(F)(F)c1cccc(NC(=O)c2cc(-c3ccc(OC(F)F)cn3)[nH]c2C)c1 [Compound 222, 5-(5-(difluoromethoxy)pyridin-2-yl)-N-(3-(1,1-difluoropropyl)phenyl)-2-methyl-1H-pyrrole-3-carboxamide]	> 100
1-(4-(difluoromethoxy)phenyl)-3-methyl-4-(1-((4-(methylsulfonyl)phenyl)amino)-1H-1,2,3-triazol-4-yl)-1H-pyrazol-5(4H)-one [Compound 195]	> 100
CCC(F)(F)c1cccc(NC(=O)C2CCN(Cc3ccc(OC)cc3)C(c3ccc(OC)cc3)C2O)c1 (stereo not shown) [Compound 275, N-(3-(1,1-difluoropropyl)phenyl)-3-hydroxy-1-(4-methoxybenzyl)-2-(4-methoxyphenyl)piperidine-4-carboxamide]	> 100
CCC(F)(F)c1cccc(NC(=O)C2(Cl)C(=O)N(c3ccc(OC(F)F)cc3)N=C2C)c1 (stereo not shown) [Compound 163, 4-chloro-1-(4-(difluoromethoxy)phenyl)-N-(3-(1,1-difluoropropyl)phenyl)-3-methyl-5-oxo-4,5-dihydro-1H-pyrazole-4-carboxamide]	< 1
CCC(F)(F)c1cccc(NC(=O)c2ncc(-c3ccc(OC(F)F)cc3)nc2C)c1 [Compound 132, 5-(4-(difluoromethoxy)phenyl)-N-(3-(1,1-difluoropropyl)phenyl)-3-methylpyrazine-2-carboxamide]	> 100
CCC(F)(F)c1cccc(NC(=O)c2cnc(-c3ccc(OC(F)F)c(-c4ccccn4)c3)nc2C)c1 [Compound 119, 2-(4-(difluoromethoxy)-3-(pyridin-2-yl)phenyl)-N-(3-(1,1-difluoropropyl)phenyl)-4-methylpyrimidine-5-carboxamide]	> 100
CCCC1(C(=O)Nc2cccc(C(C)(F)F)c2)C(=O)N(c2ccc(OC(F)F)cc2)N=C1C (stereo not shown) [Compound 158, N-(3-(1,1-difluoroethyl)phenyl)-1-(4-(difluoromethoxy)phenyl)-3-methyl-5-oxo-4-propyl-4,5-dihydro-1H-pyrazole-4-carboxamide]	> 100
Cc1oc(-c2ccc(OC(F)F)cc2)nc1C(=O)Nc1cccc(C(C)(F)F)c1 [Compound 113, N-(3-(1,1-difluoroethyl)phenyl)-2-(4-(difluoromethoxy)phenyl)-5-methyloxazole-4-carboxamide]	> 100
Cc1nn(-c2ccc(OC(F)F)c(-c3ccccc3)c2)cc1C(=O)Nc1cccc(C(C)(F)F)c1 [Compound 186, N-(3-(1,1-difluoroethyl)phenyl)-1-(6-(difluoromethoxy)-[1,1’-biphenyl]-3-yl)-3-methyl-1H-pyrazole-4-carboxamide]	1 to 100
Cc1nn(-c2ccc(OC(F)F)cc2)c(OC(=O)N2CCN(CCO)CC2)c1C(=O)Nc1cccc(C(C)(F)F)c1 [Compound 191, 4-((3-(1,1-difluoroethyl)phenyl)carbamoyl)-1-(4-(difluoromethoxy)phenyl)-3-methyl-1H-pyrazol-5-yl 4-(2-hydroxyethyl)piperazine-1-carboxylate]	1 to 100
CC1=NN(c2ccc(OC(F)F)cc2)C(=O)C1(F)C(=O)Nc1cccc(C(C)(F)F)c1 (stereo not shown) [Compound 205, N-(3-(1,1-difluoroethyl)phenyl)-1-(4-(difluoromethoxy)phenyl)-4-fluoro-3-methyl-5-oxo-4,5-dihydro-1H-pyrazole-4-carboxamide]	< 1
Cc1nc(-c2ccc(OC(F)F)cc2)ncc1C(=O)Nc1cccc(C(C)(F)F)c1 [Compound 144, N-[3-(1,1-difluoroethyl)phenyl]-2-[4-(difluoromethoxy)phenyl]-4-methyl-pyrimidine-5-carboxamide]	> 100
CCCC1(C(=O)Nc2cccc(C(C)(F)F)c2)C(=O)N(c2ccc(OC(F)F)c(-c3ccccc3)c2)N=C1C (stereo not shown) [Compound 111, N-(3-(1,1-difluoroethyl)phenyl)-1-(6-(difluoromethoxy)-[1,1′-biphenyl]-3-yl)-3-methyl-5-oxo-4-propyl-4,5-dihydro-1H-pyrazole-4-carboxamide]	> 100
CC(F)(F)c1cccc(NC(=O)C2C(=O)N(c3ccc(OC(F)F)cc3)N=C2CS)c1 (stereo not shown) [Compound 197]	> 100
CCC(F)(F)c1cccc(NC(=O)c2nc(-c3ccc(OC(F)F)c(-c4ccccc4)n3)[nH]c2C)c1 [Compound 260, 2-(5-(difluoromethoxy)-6-phenylpyridin-2-yl)-N-(3-(1,1-difluoropropyl)phenyl)-5-methyl-1 H-imidazole-4-carboxamide]	> 100
COc1c(C(=O)Nc2cccc(C(C)(F)F)c2)c(C)nn1-c1ccc(OC(F)F)cc1 [Compound 199, N-(3-(1,1-difluoroethyl)phenyl)-1-(4-(difluoromethoxy)phenyl)-5-methoxy-3-methyl-1H-pyrazole-4-carboxamide]	1 to 100
